Assays:
Experiment in all cases: Test E pre-/postemergence herbicide test
Settings in all cases: Preemergence
[1] = system: bermudagrass; assay type: in vivo, Cynodon dactylon
In short: (§1)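 Pre-/postemergence spray, solvent + surfactant vehicle; post timing 1- to 4-leaf stage (2–18 cm). Greenhouse 12–14 d. Visual score 0 (no effect) to 100 (complete control) relative to controls.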

[2] = system: Surinam grass; assay type: in vivo, Urochloa decumbens
In short: as §1

[3] = system: large crabgrass; assay type: in vivo, Digitaria sanguinalis
In short: as §1

[4] = system: common ragweed; assay type: in vivo, Ambrosia elatior
In short: as §1

[5] = system: guineagrass; assay type: in vivo, Panicum maximum
In short: as §1

[6] = system: dallisgrass; assay type: in vivo, Paspalum dilatatum
In short: as §1

[7] = system: common sowthistle; assay type: in vivo, Sonchus oleraceous
In short: as §1

[8] = system: prickly sida; assay type: in vivo, Sida spinosa
In short: as §1

[9] = system: broadleaf signalgrass; assay type: in vivo, Brachiaria platyphylla
In short: as §1

[10] = system: common chickweed; assay type: in vivo, Stellaria media
In short: as §1

[11] = system: tropical spiderwort; assay type: in vivo, Commelina benghalensis
In short: as §1

[12] = system: annual bluegrass; assay type: in vivo, Poa annua
In short: as §1

[13] = system: downy bromegrass; assay type: in vivo, Bromus tectorum
In short: as §1

[14] = system: quackgrass; assay type: in vivo, Elytrigia repens
In short: as §1

[15] = system: Canada horseweed; assay type: in vivo, Erigeron Canadensis
In short: as §1

[16] = system: common mallow; assay type: in vivo, Malva sylvestris
In short: as §1

[17] = system: Russian thistle; assay type: in vivo, Salsola kali
In short: as §1

[18] = 250 g ai/ha, scale 0 (no effect) to 100 (complete control)
[19] = 500 g ai/ha, scale 0 (no effect) to 100 (complete control)

For CCc1nn(C(C)(C)CC)nc1C(=O)Nc1cccc(C(=O)N(C)C)c1 [Compound 372], the “Plant response rating, Bermudagrass” value ([1]; 62 g ai/ha, scale 0 to 100) was 10, the “Plant response rating, Bermudagrass” value ([1]; 125 g ai/ha, scale 0 to 100) was 60 and the “Plant response rating, Bermudagrass” value [1, 18] was 60. The “Plant response rating, Bermudagrass” value [1, 19] was 90, the “Plant response rating, Surinam Grass” value ([2]; 125 g ai/ha, scale 0 to 100) was 40 and the “Plant response rating, Surinam Grass” value [2, 19] was 75. For the same molecule, the “Plant response rating, Crabgrass, Large” value ([3]; 62 g ai/ha, scale 0 to 100) was 10, the “Plant response rating, Crabgrass, Large” value ([3]; 125 g ai/ha, scale 0 to 100) was 50 and the “Plant response rating, Crabgrass, Large” value [3, 18] was 70. The “Plant response rating, Crabgrass, Large” value [3, 19] was 100, the “Plant response rating, Ragweed” value ([4]; 62 g ai/ha, scale 0 to 100) was 10 and the “Plant response rating, Ragweed” value ([4]; 125 g ai/ha, scale 0 to 100) was 20. The “Plant response rating, Ragweed” value [4, 18] was 40, the “Plant response rating, Ragweed” value [4, 19] was 70 and the “Plant response rating, Guineagrass” value ([5]; 62 g ai/ha, scale 0 to 100) was 40. For the same molecule, the “Plant response rating, Guineagrass” value ([5]; 125 g ai/ha, scale 0 to 100) was 80, the “Plant response rating, Guineagrass” value [5, 18] was 80 and the “Plant response rating, Guineagrass” value [5, 19] was 95. The “Plant response rating, Dallisgrass” value ([6]; 62 g ai/ha, scale 0 to 100) was 10, the “Plant response rating, Dallisgrass” value ([6]; 125 g ai/ha, scale 0 to 100) was 50 and the “Plant response rating, Dallisgrass” value [6, 18] was 80. For the same molecule, the “Plant response rating, Dallisgrass” value [6, 19] was 85, the “Plant response rating, Sowthistle” value ([7]; 62 g ai/ha, scale 0 to 100) was 10 and the “Plant response rating, Sowthistle” value ([7]; 125 g ai/ha, scale 0 to 100) was 40. The “Plant response rating, Sowthistle” value [7, 18] was 40, the “Plant response rating, Sowthistle” value [7, 19] was 95 and the “Plant response rating, Prickly Sida” value ([8]; 62 g ai/ha, scale 0 to 100) was 20. The “Plant response rating, Prickly Sida” value [8, 18] was 95, the “Plant response rating, Prickly Sida” value [8, 19] was 95 and the “Plant response rating, Signalgrass” value ([9]; 62 g ai/ha, scale 0 to 100) was 0. For the same molecule, the “Plant response rating, Signalgrass” value ([9]; 125 g ai/ha, scale 0 to 100) was 10, the “Plant response rating, Signalgrass” value [9, 18] was 40 and the “Plant response rating, Signalgrass” value [9, 19] was 60. The “Plant response rating, Chickweed” value ([10]; 62 g ai/ha, scale 0 to 100) was 60, the “Plant response rating, Chickweed” value ([10]; 125 g ai/ha, scale 0 to 100) was 90 and the “Plant response rating, Chickweed” value [10, 18] was 95. The “Plant response rating, Chickweed” value [10, 19] was 95, the “Plant response rating, Spiderwort” value ([11]; 125 g ai/ha, scale 0 to 100) was 70 and the “Plant response rating, Spiderwort” value [11, 18] was 70. For the same molecule, the “Plant response rating, Spiderwort” value [11, 19] was 80, the “Plant response rating, Bluegrass” value ([12]; 62 g ai/ha, scale 0 to 100) was 30 and the “Plant response rating, Bluegrass” value ([12]; 125 g ai/ha, scale 0 to 100) was 80. The “Plant response rating, Bluegrass” value [12, 18] was 95, the “Plant response rating, Bluegrass” value [12, 19] was 95 and the “Plant response rating, Bromegrass, Downy” value ([13]; 62 g ai/ha, scale 0 to 100) was 20. For the same molecule, the “Plant response rating, Bromegrass, Downy” value ([13]; 125 g ai/ha, scale 0 to 100) was 70, the “Plant response rating, Bromegrass, Downy” value [13, 18] was 80 and the “Plant response rating, Bromegrass, Downy” value [13, 19] was 85. For the same molecule, the “Plant response rating, Quackgrass” value ([14]; 62 g ai/ha, scale 0 to 100) was 30, the “Plant response rating, Quackgrass” value ([14]; 125 g ai/ha, scale 0 to 100) was 60 and the “Plant response rating, Quackgrass” value [14, 18] was 95. The “Plant response rating, Quackgrass” value [14, 19] was 95, the “Plant response rating, Horseweed” value ([15]; 62 g ai/ha, scale 0 to 100) was 80 and the “Plant response rating, Horseweed” value ([15]; 125 g ai/ha, scale 0 to 100) was 80. For the same molecule, the “Plant response rating, Horseweed” value [15, 18] was 95, the “Plant response rating, Horseweed” value [15, 19] was 100 and the “Plant response rating, Mallow” value ([16]; 62 g ai/ha, scale 0 to 100) was 50. The “Plant response rating, Mallow” value ([16]; 125 g ai/ha, scale 0 to 100) was 50, the “Plant response rating, Mallow” value [16, 18] was 80 and the “Plant response rating, Mallow” value [16, 19] was 90. For the same molecule, the “Plant response rating, Thistle” value ([17]; 125 g ai/ha, scale 0 to 100) was 40 and the “Plant response rating, Thistle” value [17, 19] was 80.
In the case of Cc1nn(C(C)(C)C)nc1C(=O)Nc1cccc(C(=O)N(C)C)c1 [Compound 391], the “Plant response rating, Bermudagrass” value ([1]; 62 g ai/ha, scale 0 to 100) is reported as 85, the “Plant response rating, Bermudagrass” value ([1]; 125 g ai/ha, scale 0 to 100) is reported as 90 and the “Plant response rating, Bermudagrass” value [1, 18] is reported as 95. The “Plant response rating, Bermudagrass” value [1, 19] was 95, the “Plant response rating, Surinam Grass” value ([2]; 125 g ai/ha, scale 0 to 100) was 70 and the “Plant response rating, Surinam Grass” value [2, 19] was 100. For the same molecule, the “Plant response rating, Crabgrass, Large” value ([3]; 62 g ai/ha, scale 0 to 100) was 60, the “Plant response rating, Crabgrass, Large” value ([3]; 125 g ai/ha, scale 0 to 100) was 95 and the “Plant response rating, Crabgrass, Large” value [3, 18] was 95. The “Plant response rating, Crabgrass, Large” value [3, 19] was 95, the “Plant response rating, Ragweed” value ([4]; 62 g ai/ha, scale 0 to 100) was 50 and the “Plant response rating, Ragweed” value ([4]; 125 g ai/ha, scale 0 to 100) was 75. The “Plant response rating, Ragweed” value [4, 18] was 95, the “Plant response rating, Ragweed” value [4, 19] was 100 and the “Plant response rating, Guineagrass” value ([5]; 62 g ai/ha, scale 0 to 100) was 60. The “Plant response rating, Guineagrass” value ([5]; 125 g ai/ha, scale 0 to 100) was 80, the “Plant response rating, Guineagrass” value [5, 18] was 100 and the “Plant response rating, Guineagrass” value [5, 19] was 100. For the same molecule, the “Plant response rating, Dallisgrass” value ([6]; 62 g ai/ha, scale 0 to 100) was 60, the “Plant response rating, Dallisgrass” value ([6]; 125 g ai/ha, scale 0 to 100) was 80 and the “Plant response rating, Dallisgrass” value [6, 18] was 95. For the same molecule, the “Plant response rating, Dallisgrass” value [6, 19] was 95, the “Plant response rating, Sowthistle” value ([7]; 62 g ai/ha, scale 0 to 100) was 50 and the “Plant response rating, Sowthistle” value ([7]; 125 g ai/ha, scale 0 to 100) was 75. For the same molecule, the “Plant response rating, Sowthistle” value [7, 18] was 100, the “Plant response rating, Sowthistle” value [7, 19] was 100 and the “Plant response rating, Prickly Sida” value ([8]; 62 g ai/ha, scale 0 to 100) was 50. For the same molecule, the “Plant response rating, Prickly Sida” value ([8]; 125 g ai/ha, scale 0 to 100) was 100, the “Plant response rating, Prickly Sida” value [8, 18] was 100 and the “Plant response rating, Prickly Sida” value [8, 19] was 100. For the same molecule, the “Plant response rating, Signalgrass” value ([9]; 62 g ai/ha, scale 0 to 100) was 40, the “Plant response rating, Signalgrass” value ([9]; 125 g ai/ha, scale 0 to 100) was 70 and the “Plant response rating, Signalgrass” value [9, 18] was 90. The “Plant response rating, Signalgrass” value [9, 19] was 90, the “Plant response rating, Chickweed” value ([10]; 62 g ai/ha, scale 0 to 100) was 90 and the “Plant response rating, Chickweed” value ([10]; 125 g ai/ha, scale 0 to 100) was 90. For the same molecule, the “Plant response rating, Chickweed” value [10, 18] was 100, the “Plant response rating, Chickweed” value [10, 19] was 100 and the “Plant response rating, Spiderwort” value ([11]; 125 g ai/ha, scale 0 to 100) was 90. The “Plant response rating, Spiderwort” value [11, 18] was 90, the “Plant response rating, Spiderwort” value [11, 19] was 95 and the “Plant response rating, Bluegrass” value ([12]; 62 g ai/ha, scale 0 to 100) was 95. For the same molecule, the “Plant response rating, Bluegrass” value ([12]; 125 g ai/ha, scale 0 to 100) was 95, the “Plant response rating, Bluegrass” value [12, 18] was 95 and the “Plant response rating, Bluegrass” value [12, 19] was 95. For the same molecule, the “Plant response rating, Bromegrass, Downy” value ([13]; 62 g ai/ha, scale 0 to 100) was 10, the “Plant response rating, Bromegrass, Downy” value ([13]; 125 g ai/ha, scale 0 to 100) was 30 and the “Plant response rating, Bromegrass, Downy” value [13, 18] was 95. For the same molecule, the “Plant response rating, Bromegrass, Downy” value [13, 19] was 95, the “Plant response rating, Quackgrass” value ([14]; 62 g ai/ha, scale 0 to 100) was 40 and the “Plant response rating, Quackgrass” value ([14]; 125 g ai/ha, scale 0 to 100) was 90. For the same molecule, the “Plant response rating, Quackgrass” value [14, 18] was 95, the “Plant response rating, Quackgrass” value [14, 19] was 95 and the “Plant response rating, Horseweed” value ([15]; 62 g ai/ha, scale 0 to 100) was 80. For the same molecule, the “Plant response rating, Horseweed” value ([15]; 125 g ai/ha, scale 0 to 100) was 95, the “Plant response rating, Horseweed” value [15, 18] was 100 and the “Plant response rating, Horseweed” value [15, 19] was 100. The “Plant response rating, Mallow” value ([16]; 62 g ai/ha, scale 0 to 100) was 80, the “Plant response rating, Mallow” value ([16]; 125 g ai/ha, scale 0 to 100) was 80 and the “Plant response rating, Mallow” value [16, 18] was 100. The “Plant response rating, Mallow” value [16, 19] was 100, the “Plant response rating, Thistle” value ([17]; 125 g ai/ha, scale 0 to 100) was 100 and the “Plant response rating, Thistle” value [17, 19] was 100.

Reference: patent US20060069132A1, “Azolecarboxamide herbicides” (priority 2004, published 2006)
